Results on one substance are retold here after patent US12180526B2, “Subterranean microalgae for production of microbial biomass, substances, and compositions” (Kuehnle AgroSystems, Inc., priority 2019, dated 2024).

The assay is described as follows: DPPH Radical Scavenging Activity. To be noted: DPPH 0.06 mM in methanol. How it is done:
Extraction and isolation of C-PC are carried out as is known in the art (Wu et al. 2016) using commercial grade biomass from a source in Hawaii. The C-PC is then further purified by ultrafiltration using a 10 kDa membrane to obtain an absorbance ratio of A620/A280 of 1.4 and stored frozen as a lyophilized powder. For testing, powder is solubilized in phosphate-citrate buffer to 0.4 mg/mL. Samples are tested for thermal stability at 65° C. for 30 minutes, at pH 6.0, per Example 3. The addition of EPS at a concentration of 1% (w/v; produced from resolubilized lyophilized powder with no added grinding) results in a reduction of the CR value by 13% compared to the control lacking stabilizing agents after exposure to 65° C. for 30 min at pH 6.0. This indicates added stabilization, which can likely be optimized with additional testing. Antioxidant capacity is measured using the DPPH Radical Scavenging Activity as is known in the art (Alam et al. 2013), with the modification of using DPPH (1,1-diphenyl-2-picrylhydrazyl; Sigma-Aldrich D9132) in methanol (0.06 mM), and readings taken on a Biotek Synergy HTX multi-mode microplate reader.
(The DPPH test is a chemical assay of radical scavenging.)

For phycocyanin, the “antioxidant activity IC50” value is 1800 µg/mL.
